The values below are quoted from earlier work in US6346264B1, “Supplement for restoring growth hormone levels” (International Health Products and Services Ltd., priority 1999, dated 2002).

Where two headings read alike, the source gives them in different places.

For data set [1] the following is noted: after six months of usage, without exercise.
The conditions of data set [2]: 6 months, growth hormone deficient patients.
For data set [3] the following is noted: 4 months, deficient adults.
In the next data set the test system is hGH release. Conditions: low doses in the region of 200 mg (Matteini).
Setting [4] is: 202 patients, age 39-74, hGH injection.

Consider “hGH: human growth hormone, medical name Somatotropin, produced in the anterior pituitary gland; available as injectable bio-synthetic product”, for which, in data set [1], the “average increase in lean muscle mass” value was 8% and the loss of fat is on record as 14.4%. Under setting [4], the “increase in healing capacity” value is reported as 71%; the “individuals describing improvement in duration of penile erection” value is 62%; the “individuals describing increase and improvement in sexual potency and frequency of sexual relations” value is given as 75%; the “individuals with improved energy levels” value is 84%. Further, the “individuals with improved muscle strength” value under setting [4] was 88%. Further, for the setting “high frequency-low dose injections”, the IGF-1 levels entry is “elevated”. Also, in data set [2], the “Insulin-like Growth Factor 1 (IGF-1)” value is recorded as “increase”, the fat result is reported as “reduction”, the lean body mass result was “increase” and the metabolic rate result is listed as “increased”. The plasma cholesterol entry in data set [2] is on record as “lowered”. Also, in data set [3], the IGF-1 levels entry was “normalized”; the fat entry is given as “reduced”; the muscle thickness entry is reported as “increased”; the “renal plasma flow and glomerular filtration rates” value is given as “raised from subnormal levels to levels comparable for their age”.
Take `N=C(N)NCCC[C@H](N)C(=O)O` [arginine]: the hGH release result in the data set on hGH release is on record as “can elevate hGH release”.
